Measurements reported in patent US20250276962A1, “CONTRACEPTIVE COMPOUNDS AND METHODS” (Regents of the University of Minnesota, priority 2021, published 2025).
“And” between values parts separate entries of the source, which are not always exact repeats. Identical values can stand only once. “Also recorded” adds a separate entry of the source. Like-named read-outs stand apart in the source and are kept apart here.

Assays:
[1] = test system: human liver fibroblast; assay type: cell-based
Excerpt: The results were negative.

[2] = test system: male cynomolgus macaques; assay: Cynomolgus macaque study with sperm counts per ejaculate as readout; assay type: in vivo
Method: Sperm counts were assessed weekly or bi-weekly in fresh semen samples obtained with electroejaculation. 3 macaques were orally dosed with 2.5 mg/kg, which is the dose equivalent to 10 mg/kg in mouse based on body surface area. […] The animals are now in recovery to assess reversibility (data not shown). […] After dosing for another week at 7.5 mg/kg/day, individual sperm counts were 132, 38 and 12×10^6 showing efficacy in all 3 animals. Since day 38, the animals have been in recovery to assess reversibility. Four weeks after the animals received the last dose, individual sperm counts were 297, 71 and 300×10^6 showing 50% reversibility in animal #1, 65% reversibility in animal #2 and 100% reversibility in animal #3.

[3] = test system: male Sprague-Dawley rats; assay: Testis histopathology after 14-day dosing, rat; assay type: in vivo; details: male SD rats, daily doses for 14 days (25 mg/kg/day in FIG. 11)
Method: (§1) 2 male Beagle dogs and 5 male SD rats were dosed with 25 mg/kg/day for 14 days. On Day 15, animals were euthanized to harvest organs for histopathology. Shown are representative images. See Example 19.

[4] = test system: male Beagle dogs; assay: Testis histopathology after 14-day dosing, dog; assay type: in vivo; details: daily doses for 14 days (25 mg/kg/day in FIG. 11)
Method: as §1

[5] = Single dose PK, mouse; assay type: in vivo
Excerpt: Single dose pharmacokinetics (PK) studies at therapeutic dose levels: Presented are area under the curve (AUC) values to better compare exposure levels between species.
[…]. […] This value serves as the basis to calculate multiples over efficacy across species.

[6] = Single dose PK, cynomolgus macaque; assay type: in vivo
Method: NHP studies: Three young adult male marmosets received a single 5 mg/kg dose of the compound of Example land the compound of 3 sexually mature male cynomolgus macaques received a single dose of 0.5, 1, 5 and 10 mg/kg.

[7] = Solubility in saline and 50% carbitol; assay type: physicochemical
[8] = test system: 48 potential off-targets; assay: Off-target screening, agonist and antagonist activity against 48 potential off-targets; details: 10 uM; against 39 of 48 targets (including glucocorticoid and androgen receptors)
[9] = biological target: Kir2.1 (potassium channel of excitable cells) (Homo sapiens, UniProt P63252); assay: Off-target screening, Kir2.1; assay type: cell-based
[10] = biological target: NaV1.5 (Homo sapiens, UniProt Q14524); assay: Off-target screening, NaV1.5; assay type: cell-based; details: 10 μM
[11] = biological target: NaV1.5 (cardiac sodium ion channel) (Homo sapiens, UniProt Q14524); assay: Off-target screening, NaV1.5; assay type: cell-based
[12] = biological target: cyclooxygenase 1 (COX1) (Homo sapiens, UniProt P23219); assay: Off-target screening, COX1; assay type: biochemical
[13] = biological target: cannabinoid receptor 1 (CB1) (Homo sapiens, UniProt P21554); assay: Off-target screening, CB1; assay type: cell-based
[14] = Stability in dog hepatocytes; assay type: in vitro ADME; details: read-out: Half-life (T1/2) Hepatocytes (Phase I and Phase II metabolism)
[15] = Stability in monkey liver microsomes; assay type: in vitro ADME; details: read-out: Half-life (T1/2) Liver microsomes (Phase I metabolism) (converted)
[16] = Stability in rat liver microsomes; assay type: in vitro ADME; details: read-out: Half-life (T1/2) Liver microsomes (Phase I metabolism)
[17] = Stability in rabbit liver microsomes; assay type: in vitro ADME; details: read-out: Half-life (T1/2) Liver microsomes (Phase I metabolism) (converted)
[18] = Stability in dog liver microsomes; assay type: in vitro ADME; details: read-out: Half-life (T1/2) Liver microsomes (Phase I metabolism)
[19] = test system: male cynomolgus macaques; details: cynomolgus monkey, in vivo
[20] = not given; remark: listed apart in the source
[21] = test system: male Sprague-Dawley rats
[22] = in vitro; details: mouse hepatocytes
[23] = in vivo; details: male, Sprague-Dawley, rat, oral
[24] = Single dose toxicity, rat; details: Sprague-Dawley, in vivo, Maximum tolerated dose (MTD), Sprague-Dawley rats, highest dose level tested
[25] = Single dose toxicity, dog; details: Beagle, in vivo, Maximum tolerated dose (MTD), Beagle dogs, highest dose level tested
[26] = Single dose toxicity, mouse; details: male, CD-1, mouse, in vivo, Maximum tolerated dose (MTD), male CD-1 mice, highest dose level tested
[27] = Distribution assay, plasma levels after oral dosing; details: CD-1 mice, 10 mg/kg oral
Method: Testes and brain were then harvested. Resulting plasma and tissue were frozen at <−20° C. until analysis by LC/MS/MS.

Chain of cannabinoid receptor 1 (CB1) (P21554 whole entry, species assumed): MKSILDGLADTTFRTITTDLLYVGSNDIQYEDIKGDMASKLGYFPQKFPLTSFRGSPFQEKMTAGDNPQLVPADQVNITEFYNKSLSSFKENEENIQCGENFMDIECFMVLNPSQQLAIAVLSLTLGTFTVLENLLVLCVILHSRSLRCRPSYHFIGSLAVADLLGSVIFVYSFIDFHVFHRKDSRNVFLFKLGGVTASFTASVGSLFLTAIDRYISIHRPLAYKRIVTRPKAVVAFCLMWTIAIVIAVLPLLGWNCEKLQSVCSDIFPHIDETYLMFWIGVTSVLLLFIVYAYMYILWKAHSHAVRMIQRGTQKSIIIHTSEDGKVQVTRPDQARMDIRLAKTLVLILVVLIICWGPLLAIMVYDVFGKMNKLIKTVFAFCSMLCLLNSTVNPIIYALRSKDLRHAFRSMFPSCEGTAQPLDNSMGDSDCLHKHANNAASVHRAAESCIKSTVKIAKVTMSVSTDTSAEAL
Chain of cyclooxygenase 1 (COX1) (P23219 24-599, species assumed): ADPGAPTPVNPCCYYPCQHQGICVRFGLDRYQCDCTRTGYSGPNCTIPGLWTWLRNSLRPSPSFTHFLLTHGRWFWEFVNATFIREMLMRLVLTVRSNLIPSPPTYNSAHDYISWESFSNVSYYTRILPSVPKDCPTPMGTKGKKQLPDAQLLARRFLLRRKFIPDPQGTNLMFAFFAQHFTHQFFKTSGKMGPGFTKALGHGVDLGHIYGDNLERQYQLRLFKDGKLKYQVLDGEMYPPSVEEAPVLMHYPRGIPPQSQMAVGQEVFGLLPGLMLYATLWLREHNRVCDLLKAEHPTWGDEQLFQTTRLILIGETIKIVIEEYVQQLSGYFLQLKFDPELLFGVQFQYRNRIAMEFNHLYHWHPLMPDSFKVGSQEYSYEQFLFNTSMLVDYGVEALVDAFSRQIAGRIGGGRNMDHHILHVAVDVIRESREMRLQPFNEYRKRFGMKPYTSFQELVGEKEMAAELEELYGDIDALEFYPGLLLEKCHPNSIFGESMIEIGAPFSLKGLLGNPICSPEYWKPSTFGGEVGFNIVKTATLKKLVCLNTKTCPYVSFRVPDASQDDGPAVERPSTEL
Chain of Kir2.1 (potassium channel of excitable cells) (P63252 whole entry): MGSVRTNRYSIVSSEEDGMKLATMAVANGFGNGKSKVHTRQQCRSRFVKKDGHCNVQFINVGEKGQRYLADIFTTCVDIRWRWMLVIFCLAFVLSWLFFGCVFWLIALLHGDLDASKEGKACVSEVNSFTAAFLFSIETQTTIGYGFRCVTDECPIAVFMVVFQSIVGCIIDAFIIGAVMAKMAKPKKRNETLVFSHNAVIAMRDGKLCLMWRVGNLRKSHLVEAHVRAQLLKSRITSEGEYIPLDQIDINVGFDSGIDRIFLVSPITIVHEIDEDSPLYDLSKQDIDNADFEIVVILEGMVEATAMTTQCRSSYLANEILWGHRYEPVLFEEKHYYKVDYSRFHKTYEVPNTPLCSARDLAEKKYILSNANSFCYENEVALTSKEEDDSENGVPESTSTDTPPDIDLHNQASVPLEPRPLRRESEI
Chain of NaV1.5 (Q14524 whole entry): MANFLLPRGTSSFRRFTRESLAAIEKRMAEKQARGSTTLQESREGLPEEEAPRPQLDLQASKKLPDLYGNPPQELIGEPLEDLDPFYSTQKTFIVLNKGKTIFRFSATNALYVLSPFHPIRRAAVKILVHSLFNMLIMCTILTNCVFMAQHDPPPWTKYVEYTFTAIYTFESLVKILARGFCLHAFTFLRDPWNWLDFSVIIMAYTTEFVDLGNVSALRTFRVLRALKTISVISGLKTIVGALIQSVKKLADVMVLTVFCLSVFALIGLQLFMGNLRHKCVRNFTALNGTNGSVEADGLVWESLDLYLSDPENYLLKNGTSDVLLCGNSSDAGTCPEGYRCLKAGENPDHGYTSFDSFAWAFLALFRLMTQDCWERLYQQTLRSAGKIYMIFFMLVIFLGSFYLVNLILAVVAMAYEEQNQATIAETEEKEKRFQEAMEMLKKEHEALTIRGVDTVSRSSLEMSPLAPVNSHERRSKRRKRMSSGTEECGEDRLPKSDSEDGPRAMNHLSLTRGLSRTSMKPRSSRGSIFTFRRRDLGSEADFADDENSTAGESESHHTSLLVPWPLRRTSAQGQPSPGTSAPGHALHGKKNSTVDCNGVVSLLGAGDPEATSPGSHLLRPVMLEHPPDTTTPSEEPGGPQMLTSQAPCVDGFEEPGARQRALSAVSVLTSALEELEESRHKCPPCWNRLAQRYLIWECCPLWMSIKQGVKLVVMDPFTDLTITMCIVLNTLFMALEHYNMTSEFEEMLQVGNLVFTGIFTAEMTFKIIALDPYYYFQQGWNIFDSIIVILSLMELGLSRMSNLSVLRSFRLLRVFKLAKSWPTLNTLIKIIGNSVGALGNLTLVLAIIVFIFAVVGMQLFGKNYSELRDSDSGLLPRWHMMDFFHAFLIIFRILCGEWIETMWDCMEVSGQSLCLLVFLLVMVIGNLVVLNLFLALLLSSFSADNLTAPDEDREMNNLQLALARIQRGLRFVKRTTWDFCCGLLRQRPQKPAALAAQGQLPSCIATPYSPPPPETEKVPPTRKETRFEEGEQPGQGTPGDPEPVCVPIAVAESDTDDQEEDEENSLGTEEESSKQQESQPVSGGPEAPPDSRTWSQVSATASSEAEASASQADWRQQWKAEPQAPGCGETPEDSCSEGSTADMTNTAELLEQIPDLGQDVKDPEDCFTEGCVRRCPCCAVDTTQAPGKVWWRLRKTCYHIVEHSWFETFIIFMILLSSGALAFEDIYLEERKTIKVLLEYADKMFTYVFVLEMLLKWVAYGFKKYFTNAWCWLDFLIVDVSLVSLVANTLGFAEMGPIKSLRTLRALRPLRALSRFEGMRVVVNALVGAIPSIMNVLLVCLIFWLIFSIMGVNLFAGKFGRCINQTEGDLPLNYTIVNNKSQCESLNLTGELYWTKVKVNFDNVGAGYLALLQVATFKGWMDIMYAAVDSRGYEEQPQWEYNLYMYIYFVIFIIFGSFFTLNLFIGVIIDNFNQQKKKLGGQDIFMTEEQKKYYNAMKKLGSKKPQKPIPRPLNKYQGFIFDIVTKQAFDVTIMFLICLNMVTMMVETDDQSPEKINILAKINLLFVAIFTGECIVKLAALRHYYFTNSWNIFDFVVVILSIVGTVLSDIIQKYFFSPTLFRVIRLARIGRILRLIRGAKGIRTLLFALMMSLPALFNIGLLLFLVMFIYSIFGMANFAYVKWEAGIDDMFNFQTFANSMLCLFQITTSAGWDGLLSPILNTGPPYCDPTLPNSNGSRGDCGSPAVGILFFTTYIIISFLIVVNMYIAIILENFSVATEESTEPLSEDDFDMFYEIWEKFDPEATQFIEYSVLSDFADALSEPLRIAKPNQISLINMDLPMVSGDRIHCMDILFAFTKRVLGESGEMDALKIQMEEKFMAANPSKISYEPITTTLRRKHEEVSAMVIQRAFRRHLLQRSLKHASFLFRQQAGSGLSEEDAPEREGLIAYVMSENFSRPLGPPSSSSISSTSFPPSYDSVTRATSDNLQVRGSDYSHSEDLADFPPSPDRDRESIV

For `Cc1ccc(C2=CC(C)(C)Oc3ccc(-c4ccc(-c5ccc(C(=O)[O-])cc5)[nH]4)cc32)cc1.[Na+]` [Example 1, Sodium 4-(5-(2,2-dimethyl-4-(p-tolyl)-2H-chromen-6-yl)-1H-pyrrol-2-yl)benzoate], the “Human liver (lung) fibroblast assay result” value [1] was “negative”, the “Human liver (lung) fibroblast assay result” value ([1]; human) was “The compound of Example 1 showed no cytopathic effects in HepG2 and human” and the “Individual sperm counts per ejaculate” value ([2]; second cohort (initial 598, 203 and 277), 5 mg/kg/day, after 14 days, 5 mg/kg/day) was 377 ×10^6 and 62 ×10^6 and 134 ×10^6. The “Individual sperm counts per ejaculate” value ([2]; second cohort, 5 mg/kg/day, after 30 days, 5 mg/kg/day) was 262 ×10^6 and 28 ×10^6 and 70 ×10^6, the “Individual sperm counts per ejaculate” value ([2]; second cohort, four weeks after the last dose) was 297 ×10^6 and 71 ×10^6 and 300 ×10^6 and the “Reversibility of sperm count reduction” value ([2]; second cohort, four weeks after the last dose, animal #1, #2, #3) was 50% and 65% and 100%. The Testis histopathology [3] was “degeneration of the germinal epithelium; also recorded: impairs the germinal epithelium”, the Testis histopathology [4] was “degeneration of the germinal epithelium; also recorded: visible in all evaluated tubuli seminiferi contorti; also recorded: impairs the germinal epithelium” and the AUC0-inf in plasma ([5]; male CD-1 mice, single 10 mg/kg dose) was 6,681 h*(ng/mL). For the same molecule, the AUC(0-inf) ([5]; male, CD-1, plasma, Mouse 10 mg/kg, single dose) was 6680 ng·h/mL, the AUC(0-t) ([5]; male, CD-1, plasma, Mouse 10 mg/kg, read-out: AUC0-48) was 6580 ng·h/mL and the AUC(0-inf) ([6]; Cyno 1 mg/kg) was 33,394 h * ng * mL^−1. For the same molecule, the AUC(0-inf) ([6]; Cyno 5 mg/kg) was 175,202 h * ng * mL^−1, the AUC(0-inf) ([6]; Cyno 10 mg/kg) was 293,423 h * ng * mL^−1 and the AUC(0-inf) ([6]; male, cynomolgus monkey, plasma, Cyno 0.5 mg/kg, read-out: AUC0-inf) was 23400 ng·h/mL. The solubility ([7]; 50% carbitol [2-(2-ethoxyethoxy)ethanol], aqueous with cosolvent or surfactant or cyclodextrin, in 50% carbitol [2-(2-ethoxyethoxy)ethanol, read-out: Solubility) was > 100 mg/mL, the solubility ([7]; saline, saline or isotonic, in saline, read-out: Solubility) was ≤ 100 mg/mL and the solubility ([7]; saline, saline or isotonic, saline, read-out: Solubility (saline)) was 2 mg/mL. The “Agonist or antagonist activity against off-targets” value [8] was “Example 1 had agonist or antagonist activity of <10% against 39 of them (including”, the IC50 [9] was > 10000 nM and the inhibition at 10 µM ([9]; read-out: Inhibition of Kir2.1) was 13.2%. It also gave an inhibition at 10 µM [10] of 37.4%, an IC50 [11] of 8800 nM and an IC50 [12] of 1410 nM. It also gave an inhibition at 10 µM ([12]; read-out: Inhibition of COX1) of 78.9%, an IC50 [13] of 1800 nM and an inhibition at 10 µM ([13]; 10 μM) of 90.5%. The half-life [14] was > 10 h, the half-life [15] was 23.1 h and the half-life [16] was > 23.1 h. For the same molecule, the half-life [17] was 19.6 h, the half-life [18] was > 23.1 h and the “Repeat dose observations (behaviour, body weight, CBC, clinical chemistry)” value [19] was “behaved normally and had no substantial changes in body weight, CBC parameters or clinical chemistry parameters”. The “Half-life (T1/2) Liver microsomes (Phase I metabolism)” value (human) was 9.5 h, the “CLint (μL/min/mg protein)” value (pooled human liver microsomes) was 2.43 μL/min/mg protein and the “T1/2” value (pooled human liver microsomes) was 9.494 h. For the same molecule, the “Half-life (T1/2) Hepatocytes (Phase I and Phase II metabolism)” value ([20]; human) was 8.7 h, the “In vitro Clint (μL/min/10^6 cells)” value ([20]; human hepatocytes) was 2.65 μL/min/10^6 cells and the “In vitro T1/2” value ([20]; human hepatocytes) was 8.706 h. The Safety margin ([21]; male, Sprague-Dawley, rat, in vivo, 14 days) was “at least 10 ×”, the “Tolerability after dose reduction to 75 mg/kg” value ([21]; rat, in vivo) was “overall health and activity improved, they gained weight, and had normal CBC and clinical chemistry” and the Tolerability ([21]; rat, in vivo, 250 mg/kg/day) was “not tolerated”. The Tolerability ([21]; rat, in vivo, po, 25 mg/kg/day) was “tolerated well”, the Tolerability ([21]; rat, in vivo, po, 50 mg/kg/day) was “tolerated well” and the “Tolerated dose on repeated dosing for 14 days” value ([21]; rats) was 50 to 75 mg/kg. The CLint scaled [22] was 56.5 mL/min/kg, the MTD at 2 weeks [23] was 50 mg/kg and the MTD [24] was 750 mg/kg. For the same molecule, the MTD [25] was > 500 mg/kg, the MTD [26] was > 1000 mg/kg and the “Plasma level at 48 hours” value [27] was 12.9 nM.
